Molecules are shown by their SMILES.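 Cultured in 96-well plates, cells were exposed to test compound for 48 hours across five concentrations. TGI: concentration producing complete growth inhibition.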

Test systems include SF-295 CNS; MALME-3M melanoma; SF-539 CNS; NCI-H460 lung; UO-31 renal; SW-620 colon; K-562 leukemia; A549 NSCLC; MDA-N; MDA-MB-231 breast.
Common to all, as to assay: inhibition of tumour cell growth, NCI panel, 48 h

Turning to `CCOC(=O)CCC(C(=O)OCC)n1nnc2cc(Nc3c(C)[n+]([O-])c4cc(F)c(OCC)cc4[n+]3[O-])ccc21` (stereo unspecified), the TGI in the assay with SF-295 CNS, with MALME-3M melanoma, in the assay on SF-539 CNS, in the assay with NCI-H460 lung, in the assay on UO-31 renal and in the assay on SW-620 colon was > 100 µM each time. In addition, the TGI in the assay with K-562 leukemia, in the assay with A549 NSCLC and with MDA-N was > 100 µM in each case.

Regarding `COC(NC(=O)Nc1ccccc1C)(C(F)(F)F)C(F)(F)F`, the TGI in the assay on SF-295 CNS, with SF-539 CNS, with NCI-H460 lung, in the assay on UO-31 renal, in the assay with SW-620 colon and in the assay on K-562 leukemia was > 100 µM throughout. In addition, the TGI in the assay with A549 NSCLC and in the assay on MDA-N was > 100 µM each time.

Consider `NC(=O)CN1C=CCC(C(N)=O)=C1`, for which the TGI in the assay on SF-295 CNS, in the assay with MALME-3M melanoma, in the assay with SF-539 CNS, in the assay on NCI-H460 lung, in the assay on UO-31 renal and in the assay on SW-620 colon was > 100 µM in each case. Moreover, the TGI with K-562 leukemia, in the assay with A549 NSCLC and with MDA-N was > 100 µM each time.

In the case of `O=c1[nH]c(=O)n(C2OC(CO)C(O)C2O)cc1OCCCc1ccccc1` (stereo unspecified), the TGI with SF-295 CNS, in the assay on MALME-3M melanoma, in the assay on SF-539 CNS, with NCI-H460 lung, in the assay with SW-620 colon and with A549 NSCLC was > 100 µM throughout. Besides, the TGI with MDA-MB-231 breast and in the assay with MDA-N was > 100 µM throughout.

Regarding `Cc1cc(-c2nc3cccc(O)c3s2)ccc1N`, the TGI is > 100 µM with SF-295 CNS; > 100 µM in the assay with SF-539 CNS; > 100 µM in the assay on NCI-H460 lung; 25.4 µM in the assay with UO-31 renal; > 100 µM in the assay with SW-620 colon; > 100 µM in the assay on K-562 leukemia. The TGI is 41.4 µM in the assay with A549 NSCLC, > 100 µM with MDA-MB-231 breast and > 100 µM in the assay with MDA-N.

On to `O=c1[nH]nc(Cc2ccc(Cl)cc2)n1/N=C/c1ccc([N+](=O)[O-])o1`, for which the TGI in the assay with SF-295 CNS is 16.2 µM; in the assay with MALME-3M melanoma, 3.31 µM; in the assay with SF-539 CNS, 9.39 µM; in the assay with NCI-H460 lung it was > 36.2 µM; in the assay on UO-31 renal it was > 24 µM; in the assay on SW-620 colon, > 21.6 µM. Moreover, the TGI in the assay with K-562 leukemia was > 31 µM; in the assay with A549 NSCLC, > 35.4 µM; in the assay with MDA-MB-231 breast, > 34.7 µM.

On to `Cc1c([C@H](C)[C@@H]2NC[C@@H](C)C[C@H]2O)ccc2c1C[C@H]1[C@H]2CC=C2C[C@@H](O)CC[C@@]21C`, for which the TGI in the assay with SF-295 CNS is 40.8 µM; with MALME-3M melanoma, 36.5 µM; in the assay on NCI-H460 lung it was 41.4 µM; in the assay on UO-31 renal, 37.5 µM; in the assay with SW-620 colon, > 100 µM; in the assay on K-562 leukemia it was 40.6 µM. For the same compound, the TGI with A549 NSCLC came out at 47.9 µM; in the assay with MDA-MB-231 breast, 35.4 µM; in the assay with MDA-N, 31 µM.

For the compound `O=C(N=Nc1ccccc1Cl)NNc1ccccc1Cl`, the TGI is > 100 µM with MALME-3M melanoma; > 100 µM with NCI-H460 lung; > 100 µM in the assay on UO-31 renal; > 100 µM with SW-620 colon; 73.1 µM with K-562 leukemia; > 100 µM with A549 NSCLC. The TGI with MDA-MB-231 breast and in the assay with MDA-N was > 100 µM in each case.

Consider `O=C(O)c1ccccc1C1c2ccccc2Oc2ccccc21`, for which the TGI with SF-295 CNS, in the assay with MALME-3M melanoma, in the assay on NCI-H460 lung, with UO-31 renal, in the assay with SW-620 colon and in the assay on K-562 leukemia was > 100 µM in each case. Also, the TGI in the assay with A549 NSCLC, in the assay on MDA-MB-231 breast and in the assay on MDA-N was > 100 µM throughout.

With `O=C1NC(N2CCOCC2)=N/C1=C\c1ccc(O)cc1`, the TGI with SF-295 CNS, in the assay on MALME-3M melanoma, with SF-539 CNS, in the assay on UO-31 renal, in the assay with SW-620 colon and with A549 NSCLC was > 100 µM each time. The TGI in the assay with MDA-MB-231 breast and in the assay on MDA-N was > 100 µM throughout.

On to `COc1ccc2cc(C(C)C(=O)N3C(=O)OCC3(C)C)ccc2c1` (stereo unspecified), for which the TGI in the assay with SF-295 CNS, with MALME-3M melanoma, in the assay with NCI-H460 lung, in the assay on UO-31 renal, in the assay on SW-620 colon and with K-562 leukemia was > 100 µM throughout. The TGI in the assay with A549 NSCLC, in the assay with MDA-MB-231 breast and in the assay on MDA-N was > 100 µM in each case.

For `Cc1cc(S(=O)(=O)/N=C(/NN)Nc2ccc(Cl)cc2)c(S)cc1Cl`, the TGI in the assay with MALME-3M melanoma is 37.1 µM; in the assay on SF-539 CNS it was 42.6 µM; in the assay with NCI-H460 lung it was 17.1 µM; in the assay on UO-31 renal, 18 µM; with SW-620 colon it was 35.9 µM; with K-562 leukemia, > 100 µM. The TGI in the assay with A549 NSCLC was 23.8 µM; in the assay with MDA-MB-231 breast, 84.2 µM; in the assay on MDA-N, 22.5 µM.

For `Cc1nc(Nc2ccccc2Cl)sc1C(=O)CC(=O)C(N)=O`, the TGI with SF-295 CNS, in the assay on SF-539 CNS, with NCI-H460 lung, with UO-31 renal, in the assay with SW-620 colon and in the assay with K-562 leukemia was > 100 µM throughout. Besides, the TGI with A549 NSCLC, with MDA-MB-231 breast and in the assay with MDA-N was > 100 µM in each case.

Regarding `COc1cc2nc(-c3cccs3)nc(Nc3cccc(Cl)c3)c2cc1OC`, the TGI with SF-295 CNS is 69.2 µM; in the assay with MALME-3M melanoma, > 100 µM; with SF-539 CNS, > 100 µM; in the assay on NCI-H460 lung it was > 100 µM; in the assay on UO-31 renal, > 100 µM; with SW-620 colon it was > 100 µM. For the same compound, the TGI in the assay with K-562 leukemia, with A549 NSCLC and in the assay with MDA-MB-231 breast was > 100 µM each time.

Consider `CC1CCC2(OC1)OC1C(O)C3C4CCC5CC(OC6OC(CO)C(OC7OC(CO)C(O)C(OC8OCC(O)C(O)C8O)C7OC7OC(CO)C(O)C(OC8OC(CO)C(O)C(O)C8O)C7O)C(O)C6O)C(O)CC5(C)C4CCC3(C)C1C2C` (stereo unspecified), for which the TGI in the assay on SF-295 CNS is 3.66 µM; in the assay on SF-539 CNS it was 10.9 µM; with NCI-H460 lung it was 3.35 µM; in the assay with UO-31 renal, 3.66 µM; in the assay on SW-620 colon, 98.4 µM; in the assay on K-562 leukemia it was > 100 µM. In addition, the TGI with A549 NSCLC was 4.32 µM; in the assay on MDA-MB-231 breast it was 4.3 µM; in the assay on MDA-N, 7.94 µM.

(Values after PubChem BioAssay (NCI).)
